Reference: publication PMC6894747 (PLoS Pathogens, 2019)
Positions of bridges follow the written chain, without caps; N, C: chain ends. Residues, ends and D or L forms follow the SMILES beside them. No end group written: not given here.

Legend:
[1] = rhesus monkeys, 10 mg/kg i.v. daily for one month, within two months; indirect ELISA
Protocol: After incubation at 4 °C for 2 h and washes with PBS-T for three times, we added the serially 10-fold diluted plasma of the PBS- or peptide-treated rhesus monkeys. Goat Anti-Monkey IgG H&L (HRP) (Abcam) were incubated for 1 h at 37 °C and washed for five times.

[2] = target: T1, 6-HB formation between N36 and C34 (Human immunodeficiency virus type 1 group M subtype B, UniProt P04578); experiment: Inhibition of 6-HB formation, sandwich ELISA; assay type: biochemical, HIV-1; settings: N36 and C34 1 μM each, triplicate
T1 construct: purchased KareBay Biochem, Inc; host or cells: solid-phase chemical synthesis
T1 sequence (P04578 546-581): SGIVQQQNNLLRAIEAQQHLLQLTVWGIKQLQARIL
Protocol: The inhibitory activity of peptides on 6-HB formation was measured by the sandwich ELISA method, as previously described. Briefly, a 96-well polystyrene plate (Costar, Corning Inc., Corning, NY) was coated with rabbit anti-gp41 (NY-364) (2 μg/mL in 0.1 M Tris, pH 8.8). […] The mixture was added to the NY-364-coated plate, followed by incubation at room temperature for 60 min and washed three times with a washing buffer (PBS containing 0.1% Tween 20). The monoclonal antibody NC-1(1 μg/mL) was added to the plate and incubated at room temperature for 60 min, followed by washing three times. Rabbit anti-mouse IgG-HRP (Sigma) (1:3000 diluted) was added to each well and incubated at 37 °C for 1 h. The substrate 3, 3’, 5, 5’-tetramethylbenzidine (TMB; Sigma) was then added sequentially. Absorbance at 450 nm was measured using an ELISA reader (Ultra 384; Tecan, Research Triangle Park, NC). The percent inhibition by the peptides and the IC50 were calculated, as previously described.

HIV-1 IIIB [3] = experiment: Inhibitors alone or in combination against HIV-1 IIIB; assay type: cell-based; settings: mixture N6 / IBP-CP24, HIV-1 IIIB
Protocol: (§1) The samples were serially diluted and tested for their inhibitory activity on HIV-1 infection as described above. The data were analyzed for synergistic effect by calculating the combination index (CI) with the CalcuSyn software. CI values of <0.95 and >1.05 indicate synergy and antagonism, respectively. CI <0.1, 0.1–0.3, 0.3–0.7, 0.7–0.85, and 0.85–0.90 indicate very strong synergism, strong synergism, synergism, moderate synergism, and slight synergism, respectively. Fold of dose reduction was calculated with the ratio of concentrations of inhibitor testing alone and in combination.

HIV-1 IIIB [4] = experiment: Ex vivo anti-HIV-1 activity of sera from treated mice; assay type: in vivo; settings: BALB/c mice, i.p., N6 3.2 mg/kg and/or IBP-CP24 1.8 mg/kg
Protocol: The ex vivo anti-HIV-1 activity of a peptide or a bNAb or their combination in serum samples from mice treated with the peptide or bNAb was detected as described previously. […] Sera were collected from these mice at 2 and 8 h post-injection and tested for their inhibitory activity against HIV-1IIIB infection as described above. The dilution fold of the serum causing 50% inhibition (DF-IC50) was calculated.

T20-resistant strains = experiment: Inhibition of T20-resistant HIV-1 variants, average; assay type: cell-based; settings: comparison with CP24
Protocol: (§2) Briefly, 1×10^5/mL MT-2 or M7 cells were infected with different HIV-1 viruses at 100 TCID50 (50% tissue culture infective dose) in the presence or absence of peptides at graded concentrations overnight. Then the culture supernatants were replaced with equal volume of fresh medium. On the fourth day post-infection, supernatants were collected and mixed with equal volume of 5% Triton X-100. […] The IC50 values were calculated with CalcuSyn software [35–36], and inhibition curves of best fit were generated with GraphPad Prism.

[5] = test system: H9/HIV-1IIIB target cells with PBMC effector cells; experiment: ADCC assay, 10E8-mediated lysis; assay type: cell-based, human; settings: peptide up to 20 μM added to 10E8
Protocol: H9/HIV-1IIIB cells expressing HIV-1 Env (2.5 × 10^4 cells) as the target cells were seeded into a 96-well plate (25 μL/well), and the mixture of a serially diluted inhibitors and 10E8 (1.5 μg/mL) was added to the culture plate. PBMC (AllCells) as effector cells (2.5 × 10^4 cells in 25 μL) were cocultured with the mixture-treated target cells at 37 °C overnight, and the […] activity was measured using the CytoTox-ONE Homogeneous Membrane Integrity Assay (Promega).

rhesus monkey IgG = experiment: ELISA binding to rhesus monkey IgG; settings: ELISA on peptide-coated plate; one site specific binding fit; ± SE, three replicates per point; read-out: Estimated Kd of binding to rhesus monkey IgG
Protocol: Next, different concentrations of human or rhesus monkey IgG were added to the peptide-coated plate and incubated at 37 °C for 1 h. Rabbit anti-human IgG-HRP (1:3000 diluted) was added to each well and incubated at 37 °C for another 1 h. Afterwards, the bound IgG-HRP was detected by addition of the HRP substrate TMB. The reaction was terminated by addition of 1 M H2SO4 50 μL. Absorbance at 450 nm was measured using an ELISA reader (Ultra 384; Tecan, Research Triangle Park, NC).
The data was fitted to the “one site – specific binding” using GraphPad Prism. The standard error (SE) is given for a sample size of three replicates per data point.

HIV-1 JR-CSF = experiment: Inhibitors alone or in combination against HIV-1 JR-CSF; assay type: cell-based
Protocol: as §1

[6] = test system: HIV-1 Bal (subtype B, R5); assay type: cell-based; settings: for IC50: Bal (subtype B, R5)
Protocol: as §2

HIV-1 clinical strains = assay type: cell-based; settings: 8 clinical strains
Protocol: as §2

Pseudoviruses = experiment: Inhibition of pseudotyped HIV-1 infection, panel average; assay type: cell-based; settings: average IC50 of 12 pseudotyped strains
From the text: HIV-1 pseudoviruses were generated, as described previously.

[7] = test system: cell-cell fusion between H9/HIV-1IIIB and MT-2 cells; settings: IC50 comparison with CP24
Protocol: The inhibitory activity of peptides against cell-cell fusion between H9/HIV-1IIIB and MT-2 cells was detected, as described previously [3, 81]. Briefly, H9/HIV-1IIIB cells were labeled with a fluorescent reagent, Calcein AM (Molecular Probes, Inc., Eugene, Oregon), and then incubated with MT-2 cells (ratio = 1:10) in a 96-well plate at 37 °C for 2 h in the presence of a test peptide at graded concentrations or PBS as a control. The fused and unfused Calcein-labeled HIV-1-infected cells were counted under an inverted fluorescence microscope (Zeiss, Germany). Three fields of each well were counted and the percentage of inhibition of cell fusion by peptides was calculated as described previously [81]. The IC50 values of fusion were calculated using the CalcusSn software [36] and the inhibition curves of best fit were generated with GraphPad Prism.

in vivo = experiment: in vivo
Protocol: The samples were then centrifuged (3200 rpm for 10 min at 4 °C), and plasma was aliquoted and kept frozen until analysis.
After being coated, the plate was washed three times with PBS-T to remove the excess antibody. The remaining active sites on the plate were blocked by the addition of 150 μL 2% milk for 2 h at 37 °C. […] Then, HRP-labeled rabbit anti-mouse IgG (Sigma, USA) incubated at 37 °C for 1 h. The substrate TMB reagent were added and incubated for 5 min, resulting in the development of a blue color. Color development was stopped by the stop solution (1M H2SO4 50 μL/well). Absorbance at 450 nm was determined by an ELISA reader (Ultra 384, Tecan; Tecan, Research Triangle Park, NC).

[8] = rhesus monkey, plasma, iv, 10 mg/kg

Molecule: CC[C@H](C)[C@H](NC(=O)[C@H](CC(C)C)NC(=O)[C@H](CCC(=O)O)NC(=O)[C@H](CCC(=O)O)NC(=O)[C@@H](NC(=O)[C@H](CCCCN)NC(=O)[C@H](CCCCN)NC(=O)[C@@H](NC(=O)[C@H](Cc1ccc(O)cc1)NC(=O)[C@H](CCC(=O)O)NC(=O)[C@H](CCC(=O)O)NC(=O)[C@@H](NC(=O)[C@H](CCCCN)NC(=O)[C@H](CCCCN)NC(=O)[C@H](CC(=O)O)NC(=O)[C@H](Cc1c[nH]c2ccccc12)NC(=O)[C@H](CCC(=O)O)NC(=O)[C@H](CCC(=O)O)NC(=O)[C@H](Cc1c[nH]c2ccccc12)NC(=O)[C@@H](NC(=O)[C@H](CCSC)NC(=O)[C@@H](NC(=O)[C@@H]1CSSC[C@H](NC(=O)[C@@H](N)CC(=O)O)C(=O)N[C@@H](C)C(=O)N[C@@H](Cc2c[nH]c3ccccc23)C(=O)N[C@@H](Cc2c[nH]cn2)C(=O)N[C@@H](CC(C)C)C(=O)NCC(=O)N[C@@H](CCC(=O)O)C(=O)N[C@@H](CC(C)C)C(=O)N[C@@H](C(C)C)C(=O)N[C@@H](Cc2c[nH]c3ccccc23)C(=O)N1)[C@@H](C)O)[C@@H](C)O)[C@@H](C)CC)[C@@H](C)O)[C@@H](C)CC)C(=O)N[C@@H](CCCCN)C(=O)N[C@@H](CCCCN)C(=O)N[C@@H](CO)C(=O)O [IBP-CP24] (H-DCAWHLGELVWCTMTWEEWDKKIEEYTKKIEELIKKS-OH; disulfide 2-12; N-terminus and C-terminus assumed)
- peptide-specific antibodies in plasma [1]: no significant detectable antibodies
- inhibition of 6-HB formation between N36 and C34 [2]: much stronger inhibition on 6-HB formation than CP24 itself
- Dose reduction (HIV-1 IIIB [3]): 3.6 fold
- DF-IC50 (dilution fold of serum causing 50% inhibition of HIV-1 IIIB infection) (HIV-1 IIIB [4]; sera 2 h post-injection): 35
- DF-IC50 (dilution fold of serum causing 50% inhibition of HIV-1 IIIB infection) (HIV-1 IIIB [4]; sera 8 h post-injection): 16
- average IC50 fold of that of CP24, T20-resistant strains (T20-resistant strains): about 1.5 fold
- effect on 10E8-mediated lytic activity [5]: remained about the same
- Kd (rhesus monkey IgG): 557 nM
- Dose reduction (HIV-1 JR-CSF; mixture 10E8 / IBP-CP24, HIV-1 JR-CSF): 9.0 fold
- Dose reduction (HIV-1 JR-CSF; mixture C34 / IBP-CP24, HIV-1 JR-CSF): 0.4 fold
- Dose reduction (HIV-1 JR-CSF; mixture VRC07 / IBP-CP24, HIV-1 JR-CSF): 4.4 fold
- fold more potent than CP24 against HIV-1 Bal [6]: ~2.9 fold
- IC50 [6]: 2.57 nM
- average IC50 fold of that of CP24, clinical strains (HIV-1 clinical strains; comparison with CP24): ~1.1 fold
- average IC50 fold of that of T20, clinical strains (HIV-1 clinical strains; comparison with T20): about 2.5 fold
- fold more potent than CP24, pseudotyped strains (Pseudoviruses): ~4.9 fold
- fold more potent than T20, pseudotyped strains (Pseudoviruses): about 24.2 fold
- fold of CP24 in cell-cell fusion inhibition [7]: about 1.2 fold
- fold longer half-life than CP24 (in vivo; rhesus monkey plasma, 10 mg/kg i.v.): 26 fold
- AUC(0-t) (in vivo; [8]): 3430 µg·h/mL
- Cmax (in vivo; [8]): 52700 ng/mL
- MRT (in vivo; [8]): 64.4 h
- half-life (in vivo; [8]): 46.1 h
- fold higher AUC 0-t than CP24 (in vivo; rhesus monkeys, 10 mg/kg i.v.): about 18 fold
- Tmax (in vivo; rhesus monkeys, single i.v. 10 mg/kg, sandwich ELISA, CP24 n = 2, IBP-CP24 n = 3): 4 h

Molecule: MTWEEWDKKIEEYTKKIEELIKKS [CP24, reference compound]
- peptide-specific antibodies in plasma [1]: no significant detectable antibodies
- effect on 10E8-mediated lytic activity [5]: remained about the same
- IC50 [6]: 10.1 nM
- AUC(0-t) (in vivo; [8]): 180 µg·h/mL
- Cmax (in vivo; [8]): 23600 ng/mL
- MRT (in vivo; [8]): 4.47 h
- Tmax (in vivo; [8]): 2 h
- half-life (in vivo; [8]): 1.69 h
